Like-named read-outs stand apart in the source and are kept apart here. Peptide text beside a SMILES is read from it.

In general, EC50 refers to the midpoint of the concentration-response curve. A word on the Emax: it is the size of the effect at its maximum, as opposed to the concentration needed.

For one assay, the target named is T1, CRF2R (Homo sapiens, UniProt Q13324).
T1 sequence (Q13324 1-411): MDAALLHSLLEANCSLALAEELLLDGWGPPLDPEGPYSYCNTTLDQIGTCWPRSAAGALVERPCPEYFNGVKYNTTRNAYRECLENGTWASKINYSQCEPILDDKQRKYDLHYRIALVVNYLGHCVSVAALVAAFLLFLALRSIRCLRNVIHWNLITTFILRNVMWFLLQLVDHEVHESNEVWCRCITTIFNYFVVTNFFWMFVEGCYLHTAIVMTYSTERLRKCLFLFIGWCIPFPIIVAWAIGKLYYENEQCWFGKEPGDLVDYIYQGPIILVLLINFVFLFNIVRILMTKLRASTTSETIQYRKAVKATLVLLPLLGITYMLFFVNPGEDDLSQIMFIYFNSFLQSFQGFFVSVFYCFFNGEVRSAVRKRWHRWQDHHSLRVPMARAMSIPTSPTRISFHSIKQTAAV
Put plainly: CRF2R agonist activation (EC50 / Emax), called comparative CRF binding. In kind it is cell-based. The method in brief: (§1)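 Peptides are tested on cells bearing CRF1R or CRF2R, full length or as ligand-binding-domain constructs coupled to reporters or G proteins. Activation is scored by cAMP rise, measured in lysates or by CRE-reporter output, against vehicle control.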

Another assay has as its target T2, CRF1R (Homo sapiens, UniProt P34998).
T2 sequence (P34998 24-415): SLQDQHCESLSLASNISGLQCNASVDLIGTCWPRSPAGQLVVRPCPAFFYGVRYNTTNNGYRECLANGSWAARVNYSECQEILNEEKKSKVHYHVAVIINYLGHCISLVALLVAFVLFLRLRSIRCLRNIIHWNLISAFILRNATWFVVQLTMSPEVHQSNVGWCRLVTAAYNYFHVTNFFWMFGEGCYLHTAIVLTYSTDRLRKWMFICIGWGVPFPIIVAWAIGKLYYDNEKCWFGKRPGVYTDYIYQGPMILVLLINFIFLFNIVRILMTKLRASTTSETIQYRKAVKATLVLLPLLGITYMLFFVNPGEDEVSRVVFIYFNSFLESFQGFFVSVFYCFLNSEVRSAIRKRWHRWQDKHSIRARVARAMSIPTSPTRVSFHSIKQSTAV
The assay can be described thus: CRF1R agonist activation (EC50 / Emax), called comparative CRF binding. It counts as cell-based. The method in brief:
as §1

`CC[C@H](C)[C@H](NC(=O)[C@H](CCCNC(=N)N)NC(=O)[C@H](C)NC(=O)[C@H](CC(N)=O)NC(=O)[C@H](CCC(N)=O)NC(=O)[C@H](CCC(=O)O)NC(=O)[C@H](C)NC(=O)[C@H](CCCNC(=N)N)NC(=O)[C@H](CCC(=O)O)NC(=O)[C@H](CCCNC(=N)N)NC(=O)[C@H](CCC(N)=O)NC(=O)[C@H](CO)NC(=O)[C@H](CCC(N)=O)NC(=O)[C@@H](NC(=O)[C@H](CCCCN)NC(=O)[C@H](CCC(=O)O)NC(=O)[C@H](CC(C)C)NC(=O)[C@H](CCC(=O)O)NC(=O)[C@H](CC(C)C)NC(=O)[C@H](CC(C)C)NC(=O)[C@@H](NC(=O)[C@H](CCCNC(=N)N)NC(=O)[C@H](CC(C)C)NC(=O)[C@H](CC(C)C)NC(=O)[C@H](Cc1ccccc1)NC(=O)[C@H](CC(C)C)NC(=O)[C@@H]1CCCN1C(=O)[C@@H](NC(=O)[C@H](CC(=O)O)NC(=O)[C@@H](NC(=O)[C@H](CO)NC(=O)[C@H](CC(C)C)NC(=O)[C@H](CO)NC(=O)[C@@H]1CCCN1C(=O)[C@H](CC(N)=O)NC(=O)[C@@H](N)CC(=O)O)[C@@H](C)CC)C(C)C)[C@@H](C)O)[C@@H](C)O)C(=O)N[C@@H](Cc1ccccc1)C(=O)N[C@@H](C)C(=O)N[C@@H](CCCNC(=N)N)C(=O)N[C@H](C(N)=O)C(C)C` [compound 385] (H-DNPSLSIDVPLFLLRTLLELEKTQSQRERAEQNARIFARV-NH2; N-terminus assumed): the EC50 is 10.3 nM at CRF2R and no less than 1000 nM on CRF1R. Further, the Emax on CRF2R (read-out: CRF2R Emax) was found to be 100%; on CRF1R (read-out: CRF1R Emax) it was 46%.
As to `CC[C@H](C)[C@H](NC(=O)[C@H](CCCNC(=N)N)NC(=O)[C@H](C)NC(=O)[C@H](CC(N)=O)NC(=O)[C@H](CCC(N)=O)NC(=O)[C@H](CCC(=O)O)NC(=O)[C@H](C)NC(=O)[C@H](CCCNC(=N)N)NC(=O)[C@H](CCC(=O)O)NC(=O)[C@H](CCCNC(=N)N)NC(=O)[C@H](CCC(N)=O)NC(=O)[C@H](CO)NC(=O)[C@H](CCC(N)=O)NC(=O)[C@@H](NC(=O)[C@H](CCCCN)NC(=O)[C@H](CCC(=O)O)NC(=O)[C@H](CC(C)C)NC(=O)[C@H](CCC(=O)O)NC(=O)[C@H](CC(C)C)NC(=O)[C@H](CC(C)C)NC(=O)[C@@H](NC(=O)[C@H](CCCNC(=N)N)NC(=O)[C@H](CC(C)C)NC(=O)[C@H](CC(C)C)NC(=O)[C@H](Cc1ccccc1)NC(=O)[C@H](Cc1ccccc1)NC(=O)[C@@H]1CCCN1C(=O)[C@@H](NC(=O)[C@H](CC(=O)O)NC(=O)[C@@H](NC(=O)[C@H](CO)NC(=O)[C@H](CC(C)C)NC(=O)[C@H](CO)NC(=O)[C@@H]1CCCN1C(=O)[C@H](CC(N)=O)NC(=O)[C@@H](N)CC(=O)O)[C@@H](C)CC)C(C)C)[C@@H](C)O)[C@@H](C)O)C(=O)N[C@@H](Cc1ccccc1)C(=O)N[C@@H](C)C(=O)N[C@@H](CCCNC(=N)N)C(=O)N[C@H](C(N)=O)C(C)C` [compound 386] (H-DNPSLSIDVPFFLLRTLLELEKTQSQRERAEQNARIFARV-NH2; N-terminus assumed), the half-maximal effective concentration (EC50) is 8.7 nM on CRF2R (read-out: CRF2R EC50) and no less than 1000 nM at CRF1R (read-out: CRF1R EC50). Further, the Emax was 96% on CRF2R (read-out: CRF2R Emax) and 78.2% at CRF1R (read-out: CRF1R Emax).
On the same counts, the results for `CC[C@H](C)[C@H](NC(=O)[C@H](CCCNC(=N)N)NC(=O)[C@H](C)NC(=O)[C@H](CC(N)=O)NC(=O)[C@H](CCC(N)=O)NC(=O)[C@H](CCC(=O)O)NC(=O)[C@H](C)NC(=O)[C@H](CCCNC(=N)N)NC(=O)[C@H](CCC(=O)O)NC(=O)[C@H](CCCNC(=N)N)NC(=O)[C@H](CCC(N)=O)NC(=O)[C@H](CO)NC(=O)[C@H](CCC(N)=O)NC(=O)[C@@H](NC(=O)[C@H](CCCCN)NC(=O)[C@H](CCC(=O)O)NC(=O)[C@H](CC(C)C)NC(=O)[C@H](CCC(=O)O)NC(=O)[C@H](CC(C)C)NC(=O)[C@H](CC(C)C)NC(=O)[C@@H](NC(=O)[C@H](CCCNC(=N)N)NC(=O)[C@H](CC(C)C)NC(=O)[C@H](CC(C)C)NC(=O)[C@H](Cc1ccc(O)cc1)NC(=O)[C@H](CC(C)C)NC(=O)[C@@H]1CCCN1C(=O)[C@@H](NC(=O)[C@H](CC(=O)O)NC(=O)[C@@H](NC(=O)[C@H](CO)NC(=O)[C@H](CC(C)C)NC(=O)[C@H](CO)NC(=O)[C@@H]1CCCN1C(=O)[C@H](CC(N)=O)NC(=O)[C@@H](N)CC(=O)O)[C@@H](C)CC)C(C)C)[C@@H](C)O)[C@@H](C)O)C(=O)N[C@@H](Cc1ccccc1)C(=O)N[C@@H](C)C(=O)N[C@@H](CCCNC(=N)N)C(=O)N[C@H](C(N)=O)C(C)C` [compound 387] (H-DNPSLSIDVPLYLLRTLLELEKTQSQRERAEQNARIFARV-NH2; N-terminus assumed) are 17.8 nM, no less than 1000 nM, 100% and 50.1%.
Consider `CC[C@H](C)[C@H](NC(=O)[C@H](CO)NC(=O)[C@H](CC(C)C)NC(=O)[C@H](CO)NC(=O)[C@@H]1CCCN1C(=O)[C@H](CC(N)=O)NC(=O)[C@@H](N)CC(=O)O)C(=O)N[C@@H](CC(=O)O)C(=O)N[C@@H](CC(C)C)C(=O)N[C@H](C(=O)N[C@@H](Cc1ccccc1)C(=O)N[C@@H](Cc1c[nH]cn1)C(=O)N[C@@H](CC(C)C)C(=O)N[C@@H](CC(C)C)C(=O)N[C@@H](CCCNC(=N)N)C(=O)N[C@H](C(=O)N[C@@H](CC(C)C)C(=O)N[C@@H](CC(C)C)C(=O)N[C@@H](CCC(=O)O)C(=O)N[C@@H](CC(C)C)C(=O)N[C@@H](C)C(=O)N[C@@H](CCCNC(=N)N)C(=O)N[C@H](C(=O)N[C@@H](CCC(N)=O)C(=O)N[C@@H](CO)C(=O)N[C@@H](CCC(N)=O)C(=O)N[C@@H](CCCNC(=N)N)C(=O)N[C@@H](CCC(=O)O)C(=O)N[C@@H](CCCNC(=N)N)C(=O)N[C@@H](C)C(=O)N[C@@H](CCC(=O)O)C(=O)N[C@@H](CCC(N)=O)C(=O)N[C@@H](CC(N)=O)C(=O)N[C@@H](CCCNC(=N)N)C(=O)N[C@H](C(=O)N[C@H](C(=O)N[C@@H](Cc1ccccc1)C(=O)N[C@@H](CC(=O)O)C(=O)N[C@@H](CO)C(=O)N[C@H](C(N)=O)C(C)C)[C@@H](C)CC)[C@@H](C)CC)[C@@H](C)O)[C@@H](C)O)[C@@H](C)O` [hUcnI, human urocortin I, reference compound] (H-DNPSLSIDLTFHLLRTLLELARTQSQRERAEQNRIIFDSV-NH2), for which the Emax came to 100% on CRF2R (read-out: CRF2R (Emax %), Emax) and 100% at CRF1R (read-out: CRF1R (Emax %), Emax).
Consider `CC[C@H](C)[C@H](NC(=O)[C@H](CO)NC(=O)[C@H](CC(C)C)NC(=O)[C@H](CO)NC(=O)[C@@H]1CCCN1C(=O)[C@H](CC(N)=O)NC(=O)[C@@H](N)CC(=O)O)C(=O)N[C@@H](CC(=O)O)C(=O)N[C@@H](CC(C)C)C(=O)N[C@H](C(=O)N[C@@H](Cc1ccccc1)C(=O)N[C@@H](Cc1cnc[nH]1)C(=O)N[C@@H](CC(C)C)C(=O)N[C@@H](CC(C)C)C(=O)N[C@@H](CCCNC(=N)N)C(=O)N[C@H](C(=O)N[C@@H](CC(C)C)C(=O)N[C@@H](CC(C)C)C(=O)N[C@@H](CCC(=O)O)C(=O)N[C@@H](CC(C)C)C(=O)N[C@@H](C)C(=O)N[C@@H](CCCNC(=N)N)C(=O)N[C@H](C(=O)N[C@@H](CCC(N)=O)C(=O)N[C@@H](CO)C(=O)N[C@@H](CCC(N)=O)C(=O)N[C@@H](CCCNC(=N)N)C(=O)N[C@@H](CCC(=O)O)C(=O)N[C@@H](CCCNC(=N)N)C(=O)N[C@@H](C)C(=O)N[C@@H](CCC(=O)O)C(=O)N[C@@H](CCC(N)=O)C(=O)N[C@@H](CC(N)=O)C(=O)N[C@@H](CCCNC(=N)N)C(=O)N[C@H](C(=O)N[C@H](C(=O)N[C@@H](Cc1ccccc1)C(=O)N[C@@H](CC(=O)O)C(=O)N[C@@H](CO)C(=O)N[C@H](C(N)=O)C(C)C)[C@@H](C)CC)[C@@H](C)CC)[C@@H](C)O)[C@@H](C)O)[C@@H](C)O` [hUcnI, human urocortin I, reference compound] (H-DNPSLSIDLTFHLLRTLLELARTQSQRERAEQNRIIFDSV-NH2), for which the concentration giving a half-maximal response (EC50) on CRF2R turned out to be 3.52 nM; on CRF1R (CRF1R EC50) it was 9 nM.

The values are drawn from patent US6936585B2, “Corticotropin releasing factor 2 receptor agonists” (priority 2002, dated 2005).
